According to patent publication EP4653424A1, “PYRIDAZINONE PARP INHIBITOR, AND PREPARATION METHOD THEREFOR, AND PHARMACEUTICAL COMPOSITION AND USE THEREOF” (China Pharmaceutical University, priority 2023, dated 2024):

Key:
PARP7 enzyme = molecular target: T1, PARP7 enzyme (Homo sapiens, UniProt Q7Z3E1); test: PARP7 Chemiluminescent Assay Kit enzyme inhibition assay; assay type: biochemical; settings: for inhibition at 0.1 µM: compound at 100 nM
T1 construct: purchased BPS Bioscience
T1 sequence (Q7Z3E1 1-657): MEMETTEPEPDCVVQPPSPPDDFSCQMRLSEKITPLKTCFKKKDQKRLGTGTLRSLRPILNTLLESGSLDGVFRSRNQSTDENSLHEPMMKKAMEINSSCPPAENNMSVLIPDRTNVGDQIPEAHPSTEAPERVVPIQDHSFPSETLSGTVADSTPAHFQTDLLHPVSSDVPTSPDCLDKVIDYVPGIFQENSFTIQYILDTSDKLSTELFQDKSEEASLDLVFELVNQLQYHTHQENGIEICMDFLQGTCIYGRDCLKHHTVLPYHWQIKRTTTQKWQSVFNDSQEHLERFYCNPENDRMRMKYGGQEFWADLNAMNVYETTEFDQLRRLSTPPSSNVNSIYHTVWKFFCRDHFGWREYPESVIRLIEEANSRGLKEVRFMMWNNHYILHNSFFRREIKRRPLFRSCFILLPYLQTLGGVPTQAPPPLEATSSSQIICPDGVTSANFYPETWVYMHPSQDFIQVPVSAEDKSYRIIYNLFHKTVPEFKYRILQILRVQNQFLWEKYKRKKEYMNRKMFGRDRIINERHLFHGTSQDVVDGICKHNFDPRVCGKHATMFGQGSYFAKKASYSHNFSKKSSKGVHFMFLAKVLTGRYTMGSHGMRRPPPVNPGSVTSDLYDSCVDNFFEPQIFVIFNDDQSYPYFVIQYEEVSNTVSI
Description: Example 60: Inhibitory activity of compounds against PARP7 enzyme
Materials: PARP7 Chemiluminescent Assay Kit, BPS Bioscience; DMSO, Sinopharm, Nivo, PerkinElmer.
Preparation of 10× PBS: 720 mg of KH2PO4, 45 g of NaCl, and 5.311 g of Na2HPO4·12H2O were dissolved in 500 mL of deionized water. The system was adjusted to pH 7.4, sterilized at 121 °C for 30 min, and cooled, and then preserved at 4 °C for later use.
Preparation of 1 × PBS: 10× PBS was diluted 10-fold with deionized water, i.e., 1 part of 10× PBS was diluted with 9 parts of deionized water.
Preparation of wash buffer: 1 × PBS containing 0.05% Tween-20.
Preparation of 1 × PARP buffer: (prepared right before use) 10× PARP buffer was diluted 10-fold with deionized water and placed on ice for later use.
According to the study requirements, the test compound was diluted to the desired concentration with 100% DMSO, and then diluted 10-fold with 1× PARP buffer to give a 10× compound working solution.
• a. 5× histone mixture was thawed on ice the day before the study; • b. 1× histone mixture was prepared by diluting 5× histone mixture into 1× histone mixture with 1× PBS; 25 µL of 1× histone mixture was added to each well of the test plate and incubated overnight at 4 °C; • c. 100 µL of the blocking buffer was taken per well and added to the test plate, and the plate was incubated at 25 °C for 90 min; • d. After the incubation was completed, the liquid in the test plate was discarded, and the plate was washed 3 times; • e. 2.5 µL of compound working solution was taken from each well and added to the test plate according to the experimental layout; a corresponding volume of 1× PARP buffer containing 10% DMSO was added to the positive control wells (Positive control), and a corresponding volume of 1× PARP buffer was added to the blank control wells (Blank); • f. After the enzyme was completely dissolved, the enzyme stock solution was diluted to 6 ng/µL with 1× PARP buffer; • g. The enzyme solution was added to a test well plate at 10 µL/well, and a corresponding volume of 1× PARP buffer was added to the blank control wells, where the enzyme amount was 60 ng/well. Note: this procedure should be performed on ice; • h. […] ELISA ECL Substrate A and ELISA ECL Substrate B in the kit were mixed in a ratio of 1:1, the mixed solution was added to the test plate at 50 µL/well, luminescence detection was immediately performed using Nivo, and the luminescence value (RLU) was read; • m. […] Enzyme inhibition = 1 - % Enzyme Activity; the IC 50 was calculated using GraphPad Prism 8.

Caco-2 cell = test: Caco-2 bidirectional (ABBA) permeability assay; assay type: in vitro ADME
Description: (§1) Materials: test compounds I-A-1, I-A-2, and RBN-2397.
(§2) • (1) Caco-2 cell plating • 1. 600 µL of cell culture medium and 100 µL of cell culture medium were added to the wells of […], respectively; • 2. Before cell inoculation, Transwell was pre-incubated at 37 °C and 5% CO2 for 1 h; • 3. 100 µL of cell suspension (4 × 10^5 cells/mL) was seeded into the culture medium and cultured at 37 °C, 5% CO2, and 95% relative humidity for 14-21 days; • 4. The cell culture medium was replaced once every other day in the first 7 days, and once every day after day 7; • 5. The transepithelial electrical resistance (TEER) of the monolayer membrane was measured using EVOM3. • (2) ABBA process • 1. The plate was washed twice with pre-heated HBSS (10 mM HEPES, pH 7.4) and then incubated at 37 °C for 30 min. • 2. Test compounds were prepared in 1 mM DMSO and diluted 200-fold to 5 µM with HBSS (10 mM HEPES, pH 7.4) and HBSS (100 µM Lucifer Yellow, 10 mM HEPES, pH 7.4). • 3. Apical to basal direction: 200 µL of 5 µM working solution (100 µM Lucifer Yellow) was added to the apical compartment, and 600 µL of HBSS (10 mM HEPES, pH 7.4) was added to the basal compartment. • 4. Basal to apical direction: 600 µL of 5 µM working solution was added to the basal compartment, and 200 µL of HBSS (100 µM Lucifer Yellow, 10 mM HEPES, pH 7.4) was added to the apical compartment. • 5. 100 µL of 5 µM working solution was transferred to a sample plate containing 400 µL of cold methanol, and IS* was C0. • 6. The cell plate was incubated at 37 °C, 5% CO2, and 95% relative humidity for 2 h. • 7. 5 µL of the working solution was transferred from the apical compartment and the basal compartment to the plate. After 0.5 h of incubation, the 427 nm excitation values and 536 nm emission values were read by the Lucifer Yellow leakage detector. • 8. After 2 h of incubation, 100 µL of the solution was transferred from the apical and basal compartments with IS* to a sample plate containing 400 µL of cold methanol. • 9. The sample plate was centrifuged at 3220 g for 40 min. • 10. 100 µL of the supernatant was transferred to an assay plate containing an appropriate volume of water for LC-MS/MS analysis. • (3) Calculation
(§3) The apparent permeability coefficient (Papp, cm/s) and the efflux ratio were calculated using Microsoft Excel. Papp = (VA × Cacceptor × 100)/(Area × Time × Cinitial,donor) [formula] Efflux Ratio = (Papp(B−A))/(Papp(A−B)) [formula] Table 3. Physicochemical properties of test compounds

[1] = Caco-2 bidirectional (ABBA) permeability assay; assay type: in vitro ADME; settings: human, Caco-2
Description: as §1, §2, §3

| Compound | IC50 (PARP7 enzyme) [nM] | inhibition at 0.1 µM (PARP7 enzyme) [%] | membrane permeability (Caco-2 cell; Caco-2, summary in words) | efflux ratio (Caco-2 cell; Papp(B-A)/Papp(A-B), Caco-2) | PappA→B (1E-6 cm/s) (Caco-2 cell; apical to basal, 5 µM, 2 h, Caco-2) | PappB→A (1E-6 cm/s) (Caco-2 cell; basal to apical, 5 µM, 2 h, Caco-2) | efflux ratio at 2 h, 5 µM ([1]; Papp(B-A)/Papp(A-B)) | Papp A→B at 2 h, 5 µM ([1]; apical to basal, 5 µM, 2 h) [×10⁻⁶ cm/s] | Papp B→A at 2 h, 5 µM ([1]; basal to apical, 5 µM, 2 h) [×10⁻⁶ cm/s] | efflux ratio (Caco-2 cell; Caco-2, summary in words) |
| --- | --- | --- | --- | --- | --- | --- | --- | --- | --- | --- |
| O=C(CCNc1cn[nH]c(=O)c1C(F)(F)F)c1ccccc1 [I-D-1, 5-((3-oxo-3-phenylpropyl)amino)-4-(trifluoromethyl)pyridazin-3(2 H)-one] | < 100 | ≥ 50 |  |  |  |  |  |  |  |  |
| C[C@@H](COCCC(=O)N1CCN(c2ncc(C(F)(F)F)cn2)CC1)Nc1cn[nH]c(=O)c1C(F)(F)F [RBN-2397, reference compound] |  |  | poor membrane permeability | 5.9 | 4.1 1E-6 cm/s | 24 1E-6 cm/s |  |  |  |  |
| O=c1[nH]ncc(NCC#Cc2ccccc2C(F)(F)F)c1C(F)(F)F [I-A-1, 4-trifluoromethyl-5-((3-(2-(trifluoromethyl)phenyl)prop-2-yn-1-yl)amino)pyridazin-3(2 H)-one] | < 100 | ≥ 50 | better membrane permeability |  |  |  | 0.52 | 39.9 | 20.9 | lower efflux ratio |
